Data as given in PMC11780439 (ACS Omega, 2025).
Where two headings read alike, the source gives them in different places.

What was measured:
prion protein (PrP) [1] = target: T1, prion protein (PrP) (Mesocricetus auratus, UniProt P04273); experiment: biochemical
T1 construct: gene PRNP

prion protein (PrP) [2] = target: T1, prion protein (PrP); experiment: biochemical; remark: listed apart in the source

T1 sequence (P04273 90-231 limits assumed): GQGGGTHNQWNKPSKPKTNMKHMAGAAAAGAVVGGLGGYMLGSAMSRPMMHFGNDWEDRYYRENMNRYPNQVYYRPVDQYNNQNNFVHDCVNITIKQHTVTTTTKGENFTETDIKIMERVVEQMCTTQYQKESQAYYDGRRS

Compound: O=C(/C=C/c1ccc(O)c(O)c1)O[C@@H]1C[C@](O)(C(=O)O)C[C@@H](O)[C@H]1O [CA, chlorogenic acid]
- IC50 (prion protein (PrP) [1]): 64.4 ± 12.1 µM

Compound: O=C(O[C@@H]1Cc2c(O)cc(O)cc2O[C@@H]1c1cc(O)c(O)c(O)c1)c1cc(O)c(O)c(O)c1 [EGCG, epigallocatechin gallate]
- IC50 (prion protein (PrP) [2]): 2.84 ± 0.97 µM

Compound: O=C(/C=C/c1ccc(O)c(O)c1)O[C@@H]1C[C@@](O)(C(=O)O)C[C@@H](O)[C@@H]1O [NCA, neochlorogenic acid]
- IC50 (prion protein (PrP) [1]): 35.3 ± 7.09 µM
